Data taken from patent US8247211B2, “Glycopeptide antibiotics” (American Cyanamid Company, priority 2001, dated 2012).
Numbered stars: 1 amine (or outer) side, 2 acyl side, 3 side chain; on linkers, the order of the positions; unused ones are H or OH. Square brackets hold non-standard residues; d marks the D form. Peptide text beside a SMILES is read from it. ξ: configuration not given here. X1 = N=C1NCC(C(O)C(N[*:1])C(=O)[*:2])N1C1OC(CO)C(O)C(O)C1O; X6 = N=C1NCC(CC(N[*:1])C(=O)[*:2])N1C1OC(CO)C(O)C(O)C1O; ξEnduracididine(βξ-OH,4'ξ) = N=C1NCC(C(O)C(N)C(=O)O)N1; Tyr(3-NO2) = N[CH](Cc1ccc(O)c([N+](=O)[O-])c1)C(=O)O; Tyr(3,5-Br2) = N[CH](Cc1cc(Br)c(O)c(Br)c1)C(=O)O; X7 = N=C1NCC(CC(N[*:1])C(=O)[*:2])N1; ξPhe(βξ-Me) = CC(c1ccccc1)C(N)C(=O)O

Columns and labels:
Experiment in all cases: In vitro antibacterial evaluation: minimum inhibitory concentration (MIC), broth dilution method
Type in all cases: cell-based
Escherichia coli [1] = conditions: broth dilution, 18 hours at 35° C.
Streptococcus sp. = conditions: 18 hours at 35° C.
Method in brief: (§1)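 NCCLS M7-A2 broth dilution with Mueller-Hinton II, testing 64-0.06 μg/mL antibiotic against 5×10^5 CFU/mL inocula. Test strains include recent methicillin-, penicillin- or vancomycin-resistant clinical isolates. MIC is the lowest concentration preventing growth.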

Enterococcus sp. = conditions: 18 hours at 35° C.
Method in brief: as §1

Staphylococcus sp. = conditions: 18 hours at 35° C.
Method in brief: as §1

Escherichia coli [2] = conditions: 18 hours at 35° C.
Method in brief: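 Broth dilution per NCCLS M7-A2 in Muller-Hinton II […], inoculum 5×10^5 CFU/mL, antibiotic tested over 64-0.06 μg/mL. MIC is taken as the lowest concentration that inhibits growth. Panel includes recent clinical isolates resistant to methicillin, penicillin and/or vancomycin.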

CC(c1ccccc1)C1NC(=O)CNC(=O)C(CO)NC(=O)C(C(O)C2CNC(=N)N2C2OC(CO)C(O)C(O)C2O)NC(=O)C(C(O)C2CNC(=N)N2)NC(=O)C(Cc2cc(Br)c(O)c(Br)c2)NC1=O (stereo not drawn) [Example 3, Cyclo[glycyl-β-methylphenylalanyl-3,5-dibromotyrosyl-3-(2-iminoimidazolidin-4-yl)seryl-3-(3-hexopyranosyl-2-iminoimidazolidin-4-yl)serylseryl]] (cyclo(G[ξPhe(βξ-Me)][Tyr(3,5-Br2)][ξEnduracididine(βξ-OH,4'ξ)][X1]S); configuration not given here)
64 µg/mL: MIC Escherichia coli (GC 4560) (Escherichia coli [1])

CC(c1ccccc1)C1NC(=O)CNC(=O)C(CO)NC(=O)C(CC2CNC(=N)N2C2OC(CO)C(O)C(O)C2O)NC(=O)C(CC2CNC(=N)N2)NC(=O)C(Cc2ccc(O)c([N+](=O)[O-])c2)NC1=O (stereo not drawn) [Example 10, Cyclo[3-(2-iminoimidazolidin-4-yl)alanyl-3-(3-hexopyranosyl-2-iminoimidazolidin-4-yl)-alanylserylglycyl-β-methylphenylalanyl-3-nitrotyrosyl]] (cyclo(G[ξPhe(βξ-Me)][Tyr(3-NO2)][X7][X6]S); configuration not given here)
>64 µg/mL: MIC Escherichia coli (ATCC 25922) (Escherichia coli [1]) | MIC Escherichia coli (GC 4559) (Escherichia coli [1]) | MIC Escherichia coli (GC 4560) (Escherichia coli [1]) | MIC Streptococcus agalactiae (GC 4564) (Streptococcus sp.; broth dilution) | MIC Streptococcus pneumoniae (ATCC 6301) (Streptococcus sp.; broth dilution) | MIC Streptococcus pneumoniae (GC 1894) (Streptococcus sp.; broth dilution) | MIC Streptococcus pneumoniae (GC 4565) (Streptococcus sp.; broth dilution) | MIC Streptococcus pyogenes (GC 4563) (Streptococcus sp.; broth dilution) | MIC Enterococcus avium (GC 4558) (Enterococcus sp.; broth dilution) | MIC Enterococcus faecalis (ATCC 29212) (Enterococcus sp.; broth dilution) | MIC Enterococcus faecalis (GC 2242) (Enterococcus sp.; broth dilution) | MIC Enterococcus faecalis (GC 2691) (Enterococcus sp.; broth dilution) | MIC Enterococcus faecalis (GC 3059) (Enterococcus sp.; broth dilution) | MIC Enterococcus faecalis (GC 4552) (Enterococcus sp.; broth dilution) | MIC Enterococcus faecalis (GC 4553) (Enterococcus sp.; broth dilution) | MIC Enterococcus faecalis (GC 4554) (Enterococcus sp.; broth dilution) | MIC Enterococcus faecalis (GC 6189) (Enterococcus sp.; broth dilution) | MIC Enterococcus faecium (GC 2243) (Enterococcus sp.; broth dilution) | MIC Enterococcus faecium (GC 4556) (Enterococcus sp.; broth dilution) | MIC Enterococcus faecium (GC 4557) (Enterococcus sp.; broth dilution)

CC(c1ccccc1)C1NC(=O)CNC(=O)C(CO)NC(=O)C(C(O)C2CNC(=N)N2C2OC(CO)C(O)C(O)C2O)NC(=O)C(C(O)C2CNC(=N)N2)NC(=O)C(Cc2ccc3oc(-c4ccccc4OC4OC(CO)C(O)C(O)C4O)nc3c2)NC1=O (stereo not drawn) [Example 36]
64 µg/mL: MIC Escherichia coli (GC 4560) (Escherichia coli [1]) | MIC Coagulase Negative Staphylococcus (GC 4547) (Staphylococcus sp.; broth dilution) | MIC Coagulase Negative Staphylococcus (GC 4549) (Staphylococcus sp.; broth dilution) | MIC Coagulase Negative Staphylococcus (GC 6257) (Staphylococcus sp.; broth dilution) | MIC Staphylococcus haemolyticus (GC 4546) (Staphylococcus sp.; broth dilution)

γ-O-[(Heptylamino)carbonyl]-cyclo[glycyl-β-methylphenylalanyl-O-(4-O-hexopyranosylhexopyranosyl)tyrosyl-3-(2-iminoimidazolidin-4-yl)seryl-3-(3-hexopyranosyl-2-iminoimidazolidin-4-yl)serylseryl] [Example 253b]
64 µg/mL: MIC Escherichia coli (ATCC 25922) (Escherichia coli [2]; Escherichia coli (ATCC 25922)) | MIC Escherichia coli (GC 4559) (Escherichia coli [2]; Escherichia coli (GC 4559))
2 µg/mL: MIC Escherichia coli (GC 4560) (Escherichia coli [2]; Escherichia coli (GC 4560)) | MIC Coagulase Negative Staphylococcus (GC 4548) (Staphylococcus sp.; Coagulase Negative Staphylococcus (GC 4548)) | MIC Coagulase Negative Staphylococcus (GC 4549) (Staphylococcus sp.; Coagulase Negative Staphylococcus (GC 4549)) | MIC Coagulase Negative Staphylococcus (GC 6257) (Staphylococcus sp.; Coagulase Negative Staphylococcus (GC 6257)) | MIC Staphylococcus aureus (GC 3051) (Staphylococcus sp.; Staphylococcus aureus (GC 3051)) | MIC Staphylococcus aureus (GC 4541) (Staphylococcus sp.; Staphylococcus aureus (GC 4541)) | MIC Staphylococcus aureus (GC 4545) (Staphylococcus sp.; Staphylococcus aureus (GC 4545)) | MIC Staphylococcus aureus-SMITH (GC 4543) (Staphylococcus sp.; Staphylococcus aureus-SMITH (GC 4543)) | MIC Staphylococcus haemolyticus (GC 4546) (Staphylococcus sp.; Staphylococcus haemolyticus (GC 4546)) | MIC Staphylococcus aureus (GC 3051) (Staphylococcus sp.; broth dilution, strain GC 3051) | MIC Staphylococcus aureus (GC 4541) (Staphylococcus sp.; broth dilution, strain GC 4541) | MIC Staphylococcus aureus-SMITH (GC 4543) (Staphylococcus sp.; broth dilution, strain GC 4543) | MIC Staphylococcus aureus (GC 4545) (Staphylococcus sp.; broth dilution, strain GC 4545) | MIC Staphylococcus haemolyticus (GC 4546) (Staphylococcus sp.; broth dilution, strain GC 4546) | MIC Coagulase Negative Staphylococcus (GC 4548) (Staphylococcus sp.; broth dilution, strain GC 4548) | MIC Coagulase Negative Staphylococcus (GC 4549) (Staphylococcus sp.; broth dilution, strain GC 4549) | MIC Coagulase Negative Staphylococcus (GC 6257) (Staphylococcus sp.; broth dilution, strain GC 6257)
4 µg/mL: MIC Enterococcus faecium (GC 4557) (Enterococcus sp.; Enterococcus faecium (GC 4557)) | MIC Enterococcus faecium (GC 4557) (Enterococcus sp.; broth dilution, strain GC 4557) | MIC Coagulase Negative Staphylococcus (GC 4547) (Staphylococcus sp.; Coagulase Negative Staphylococcus (GC 4547)) | MIC Coagulase Negative Staphylococcus (GC 4551) (Staphylococcus sp.; Coagulase Negative Staphylococcus (GC 4551)) | MIC Staphylococcus aureus (ATCC 29213) (Staphylococcus sp.; Staphylococcus aureus (ATCC 29213)) | MIC Staphylococcus aureus (GC 1131) (Staphylococcus sp.; Staphylococcus aureus (GC 1131)) | MIC Staphylococcus aureus (GC 4542) (Staphylococcus sp.; Staphylococcus aureus (GC 4542)) | MIC Staphylococcus aureus (GC 4544) (Staphylococcus sp.; Staphylococcus aureus (GC 4544)) | MIC Staphylococcus aureus (ATCC 29213) (Staphylococcus sp.; broth dilution, strain ATCC 29213) | MIC Staphylococcus aureus (GC 1131) (Staphylococcus sp.; broth dilution, strain GC 1131) | MIC Staphylococcus aureus (GC 4542) (Staphylococcus sp.; broth dilution, strain GC 4542) | MIC Staphylococcus aureus (GC 4544) (Staphylococcus sp.; broth dilution, strain GC 4544) | MIC Coagulase Negative Staphylococcus (GC 4547) (Staphylococcus sp.; broth dilution, strain GC 4547) | MIC Coagulase Negative Staphylococcus (GC 4551) (Staphylococcus sp.; broth dilution, strain GC 4551)
16 µg/mL: MIC Enterococcus faecalis (GC 3059) (Enterococcus sp.; Enterococcus faecalis (GC 3059)) | MIC Enterococcus faecalis (GC 3059) (Enterococcus sp.; broth dilution, strain GC 3059)
<0.06 µg/mL: MIC Streptococcus pneumoniae (GC 1894) (Streptococcus sp.; Streptococcus pneumoniae (GC 1894)) | MIC Streptococcus pneumoniae (GC 1894) (Streptococcus sp.; broth dilution, strain GC 1894)
0.25 µg/mL: MIC Streptococcus pneumoniae (ATCC 6301) (Streptococcus sp.; Streptococcus pneumoniae (ATCC 6301)) | MIC Streptococcus pneumoniae (GC 4565) (Streptococcus sp.; Streptococcus pneumoniae (GC 4565)) | MIC Streptococcus pneumoniae (ATCC 6301) (Streptococcus sp.; broth dilution, strain ATCC 6301) | MIC Streptococcus pneumoniae (GC 4565) (Streptococcus sp.; broth dilution, strain GC 4565)
1 µg/mL: MIC Streptococcus agalactiae (GC 4564) (Streptococcus sp.; Streptococcus agalactiae (GC 4564)) | MIC Streptococcus pyogenes (GC 4563) (Streptococcus sp.; Streptococcus pyogenes (GC 4563)) | MIC Streptococcus pyogenes (GC 4563) (Streptococcus sp.; broth dilution, strain GC 4563) | MIC Streptococcus agalactiae (GC 4564) (Streptococcus sp.; broth dilution, strain GC 4564)
8 µg/mL: MIC Enterococcus avium (GC 4558) (Enterococcus sp.; Enterococcus avium (GC 4558)) | MIC Enterococcus faecalis (ATCC 29212) (Enterococcus sp.; Enterococcus faecalis (ATCC 29212)) | MIC Enterococcus faecalis (GC 2242) (Enterococcus sp.; Enterococcus faecalis (GC 2242)) | MIC Enterococcus faecalis (GC 2691) (Enterococcus sp.; Enterococcus faecalis (GC 2691)) | MIC Enterococcus faecalis (GC 4552) (Enterococcus sp.; Enterococcus faecalis (GC 4552)) | MIC Enterococcus faecalis (GC 4553) (Enterococcus sp.; Enterococcus faecalis (GC 4553)) | MIC Enterococcus faecalis (GC 4554) (Enterococcus sp.; Enterococcus faecalis (GC 4554)) | MIC Enterococcus faecalis (GC 6189) (Enterococcus sp.; Enterococcus faecalis (GC 6189)) | MIC Enterococcus faecium (GC 2243) (Enterococcus sp.; Enterococcus faecium (GC 2243)) | MIC Enterococcus faecium (GC 4556) (Enterococcus sp.; Enterococcus faecium (GC 4556)) | MIC Enterococcus faecalis (ATCC 29212) (Enterococcus sp.; broth dilution, strain ATCC 29212) | MIC Enterococcus faecalis (GC 2242) (Enterococcus sp.; broth dilution, strain GC 2242) | MIC Enterococcus faecium (GC 2243) (Enterococcus sp.; broth dilution, strain GC 2243) | MIC Enterococcus faecalis (GC 2691) (Enterococcus sp.; broth dilution, strain GC 2691) | MIC Enterococcus faecalis (GC 4552) (Enterococcus sp.; broth dilution, strain GC 4552) | MIC Enterococcus faecalis (GC 4553) (Enterococcus sp.; broth dilution, strain GC 4553) | MIC Enterococcus faecalis (GC 4554) (Enterococcus sp.; broth dilution, strain GC 4554) | MIC Enterococcus faecium (GC 4556) (Enterococcus sp.; broth dilution, strain GC 4556) | MIC Enterococcus avium (GC 4558) (Enterococcus sp.; broth dilution, strain GC 4558) | MIC Enterococcus faecalis (GC 6189) (Enterococcus sp.; broth dilution, strain GC 6189) | MIC Staphylococcus aureus (GC 3053) (Staphylococcus sp.; Staphylococcus aureus (GC 3053)) | MIC Staphylococcus aureus (GC 3053) (Staphylococcus sp.; broth dilution, strain GC 3053)
